# Target: T1, Sortase family protein (Staphylococcus aureus, UniProt Q9S446)
# T1 sequence (Q9S446 whole entry): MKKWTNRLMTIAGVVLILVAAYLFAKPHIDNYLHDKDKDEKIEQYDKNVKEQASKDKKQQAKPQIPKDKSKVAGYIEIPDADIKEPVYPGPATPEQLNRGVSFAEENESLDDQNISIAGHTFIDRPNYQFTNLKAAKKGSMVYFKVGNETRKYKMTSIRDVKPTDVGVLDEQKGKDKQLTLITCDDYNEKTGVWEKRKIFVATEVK
# Assay: Inhibition of Staphylococcus aureus ATCC 6538p SortA expressed in Escherichia coli using Dabcyl-QALPETGEE-Edans as substrate after 1 hr by fluorescence spectrophotometric method
smiles,measurement,value
O=C(O)c1cc[c]([Hg][OH])cc1,IC50,25 µM
